The values below come from US7939091B2, “Biorational repellents obtained from terpenoids for use against arthropods” (Iowa State University Research Foundation, Inc., priority 1999, dated 2011).

The structures appear in SMILES notation.

For experiment [1], the system named is German cockroach, Blattella germanica. Description: Choice-test arena bioassay (contact irritancy), German cockroach, Example 6. It is filed as in vivo. As to conditions: 300-second period. How it is done:
(§1) A choice-test arena was used to assess irritancy of test solutions to two common household insect pests, the German cockroach (Blattella germanica) and the house fly (Musca domestica). Catnip essential oil obtained by steam distillation of catnip obtained from the same source as described in the above examples, and the two major components of its essential oil, Z,E-nepetalactone and E,Z-nepetalactone (isolated from the essential oil by preparative TLC), were evaluated for behavioral effects of contact irritancy to the German cockroach. The TLC was performed as described in McElvain, S. M. et al., J. Am. Chem. Soc., 1941, 63, 1558-1563. Catnip essential oil and its major constituent Z,E-nepetalactone were tested against the house fly. N,N-diethyl-m-toluamide (DEET) (Aldrich, St. Louis, Mo.) served as a positive control for the choice-test arena assay and as a point of comparison for measuring insect behavioral effects that result from current commercial insect repellents. Test solutions ranging from 10% to 0.1% (vol/vol) active ingredient (a.i.) were made up in acetone and then delivered on to a filter paper for solvent evaporation. […] Choice-test are for German cockroaches and house flies were constructed from plastic Petri dishes. One-half of a 12.5-cm dia. filter paper was treated with 1 ml test solution, and the other was treated with 1 ml of only solvent (control). Both halves of the filter paper were placed in the choice-test arena. Position of the treated filter paper was randomized using a random-number table.
(§2) Individual German cockroaches or house flies were placed in each choice-test arena through a centered hole in the lid of the Petri dish and evaluated for a 300-second period. The amount of time the insect spent on the treated and untreated filter papers were recorded and used to calculate a percentage repellency value: Percentage Repellency=((Time on Untreated-Time on Treated)/300)×100
(§3) Ten replicates of each treatment solution were tested for both German cockroaches and house flies. Details of this assay design and some results have previously been described.

The subject of experiment [2] is house fly, Musca domestica. Description: Choice-test arena bioassay (contact irritancy), house fly. In kind it is in vivo. Particulars: for Percentage Repellency: 300-second period. How it is done: as §1, §2, §3

Regarding `CCN(CC)C(=O)c1cccc(C)c1` [DEET, N,N-diethyl-3-methylbenzamide, reference compound], the “Percentage Repellency ± SEM” value in experiment [1] (application rate 80 μg/cm^2) worked out at 15.5 ± 5.4a %; in experiment [1] (application rate 160 μg/cm^2), 20.4 ± 9.2a %; in experiment [1] (application rate 800 μg/cm^2), 25.8 ± 9.5a %; in experiment [1] (application rate 1.60 mg/cm^2), 58.3 ± 10.5b %. Besides, the “higher percentage repellency values (text summary of Table 15)” value in experiment [2] (across application rates tested) is 39%. The “Percentage Repellency” value in experiment [2] (application rate 80 μg/cm^2) is 38.7%; in experiment [2] (application rate 160 μg/cm^2) it was 19.3%; in experiment [2] (application rate 800 μg/cm^2), 20.7%.
